These results are taken from article PMC9919139, “Sustainable Synthesis, Antiproliferative and Acetylcholinesterase Inhibition of 1,4- and 1,2-Naphthoquinone Derivatives” (Molecules, 2023).

Sequence of acetylcholinesterase (AChE) (P22303 32-614): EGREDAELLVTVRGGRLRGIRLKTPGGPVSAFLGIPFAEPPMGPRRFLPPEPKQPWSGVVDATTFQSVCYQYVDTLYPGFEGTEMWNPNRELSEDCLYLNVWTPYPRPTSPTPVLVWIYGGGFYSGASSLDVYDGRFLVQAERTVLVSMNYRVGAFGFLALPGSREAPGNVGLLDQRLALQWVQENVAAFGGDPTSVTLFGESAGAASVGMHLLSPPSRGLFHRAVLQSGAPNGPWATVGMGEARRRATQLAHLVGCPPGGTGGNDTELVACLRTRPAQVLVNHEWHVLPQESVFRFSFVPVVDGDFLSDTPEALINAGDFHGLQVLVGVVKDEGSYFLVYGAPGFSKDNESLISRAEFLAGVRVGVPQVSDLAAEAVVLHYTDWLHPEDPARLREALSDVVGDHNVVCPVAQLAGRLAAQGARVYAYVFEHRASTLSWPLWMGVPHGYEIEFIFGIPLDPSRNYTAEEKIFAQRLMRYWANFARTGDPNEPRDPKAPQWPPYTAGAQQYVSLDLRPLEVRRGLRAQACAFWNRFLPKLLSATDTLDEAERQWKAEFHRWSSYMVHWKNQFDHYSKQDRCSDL

One data set addresses acetylcholinesterase (AChE) (Homo sapiens, UniProt P22303). Nature of the data set: AChE inhibition assay (Ellman's colorimetric method). As to conditions: concentration that inhibits 50% of the AChE activity; read-out: AChEIC50. Type of data set: biochemical. On the procedure: The inhibition of acetylcholinesterase (AChE) enzymatic activity was measured using the Ellman’s colorimetric method with some alterations. Briefly, 325 μL of 50 mM Tris–HCl buffer (pH 8), 100 μL of a compound’s solution with 1% DMSO, and 25 μL of AChE (0.1 U/mL) in 50 mM Tris–HCl buffer pH 8 were incubated for 15 min. Subsequently, 75 μL of acetylthiocholine iodide (AChI) (0.023 mg/mL) and 475 μL of 3 mM 5,5′-dithiobis(2-nitrobenzoic acid) (DTNB) in Tris–HCl buffer (pH 8) containing 0.05 M NaCl and 0.021 M MgCl2 were added to initiate the reaction. The initial rate of the enzymatic reaction was quantified by measuring the absorbance at 405 nm for 5 min (V[compound]). A control reaction was carried out using 1% DMSO water solution, instead of the compound’s solution, and this initial rate was considered 100% of the enzymatic activity, Vcontrol. The percentage of AChE inhibition (I) for various concentrations of the different compounds was determined as the ratio of V[compound] and Vcontrol. For each compound, both the AChEIC50 value (the concentration that inhibits 50% of the AChE activity) and the percentage of inhibition at the compound concentration of 50 µM (Inhibition50µM) were calculated by plotting I for each compound concentration. All the assays were carried out in triplicate.
In general terms: Ellman's reagent forms a yellow product with free thiols.
Regarding `O=C1C=C(Nc2ccc(O)cc2)c2ccccc2C1=O` [Compound 4b], the IC50 came to 30 µM.

On to `O=C1C=C(Nc2ccccc2O)c2ccccc2C1=O` [Compound 4h], for which the IC50 came out at 16 µM.

Staying with this data set, now noted: read-out: Inhibition50µM (AChE inhibition).
With `O=C1C=CC(=O)c2ccccc21` [Compound 1, 1,4-naphthoquinone, reference compound], the inhibition at 50 µM came out at 51%.

For `O=C1C=C(Nc2ccccc2O)c2ccccc2C1=O` [Compound 4h], the inhibition at 50 µM turned out to be 85%.

The same data set, now with this note: read-out: Inhibiton50µM (μM±SD).
Regarding `O=C1C=CC(=O)c2ccccc21` [Compound 1, 1,4-naphthoquinone, reference compound], the inhibition at 50 µM turned out to be 50.7 ± 2.3%.

In the case of `Nc1ccc(NC2=CC(=O)c3ccccc3C2=O)cc1` [Compound 3a, 2-(1,4-Phenylenediamine)-1,4-naphthoquinone], the inhibition at 50 µM is 23.4 ± 2.5%.

With `O=C1C=C(Nc2ccc(O)cc2)C(=O)c2ccccc21` [Compound 3b, 2-(4-aminophenol)-1,4-naphthoquinone], the inhibition at 50 µM was determined as 16.4 ± 2%.

For the compound `COc1ccc(NC2=CC(=O)c3ccccc3C2=O)cc1` [Compound 3c, 2-(4-methoxyaniline)-1,4-naphthoquinone], the inhibition at 50 µM amounted to 25.9 ± 3%.

In the case of `N#Cc1ccc(NC2=CC(=O)c3ccccc3C2=O)cc1` [Compound 3d, 2-(4-aminobenzonitrile)-1,4-naphthoquinone], the inhibition at 50 µM was 25.8 ± 3%.

In the case of `O=C1C=C(Nc2ccc(O)cc2)c2ccccc2C1=O` [Compound 4b], the inhibition at 50 µM came out at 74.1 ± 1.1%.

As for `O=C1C=C(Nc2ccccc2O)c2ccccc2C1=O` [Compound 4h], the inhibition at 50 µM was determined as 85.3 ± 1.3%.

System in a further data set: not listed separately
Nature of the data set: Cyclic voltammetry in acetonitrile. Type of data set: physicochemical. To be noted: Tables S1/S2, acetonitrile, 100 mV.s-1. The source says: To obtain an insight into the electronic character of the studied naphthoquinone derivatives and to find out possible relationships with their potential biological activities, the electrochemical behavior of 1,4-NQ (1) and 1,2-NQ (2) and their 2-substituted-1,4-NQ (3a–f) and 4-substituted-1,2-NQ derivatives (4a–h), respectively, were studied by cyclic voltammetry (CV) in aprotic medium (CH3CN + TBAP, 0.1 mol.L^−^1) and the electrochemical selected data are listed in Table 3 (for complete electrochemical data, see Tables S1 and S2, supplementary material).
The redox potentials were measured by cyclic voltammetry using an EG&G Princeton Applied Research (PAR) Model 273A potentiostat/galvanostat monitored by a personal computer with the Electrochemistry PowerSuite v2.51 software from PAR. Cyclic voltammograms were obtained in 1 mM of compounds in anhydrous acetonitrile solutions containing tetrabutylammonium hexafluorophosphate (TBAPF6) 0.1 M as supporting electrolyte. A three-electrode configuration cell was used with a homemade platinum disk working electrode (1.0 mm diameter) probed by a Luggin capillary connected to a silver-wire pseudo-reference electrode and a platinum wire auxiliary electrode. The potentials were scanned from −1.8 to 1.8 V at a scan rate of 100 mV·s^−^1. All measurements were done at room temperature and the solutions were deaerated with nitrogen atmosphere before use. All the potentials reported were measured against the ferrocene/ferrocenium redox couple as internal standard and corrected to SCE (using the ferrocenium/ferrocene redox couple E1/2 = 0.40 V vs. SCE).
Compound `O=C1C=CC(=O)c2ccccc21` [Compound 1, 1,4-naphthoquinone, reference compound] registered an Ipa/Ipc of 0.9.

As to `Nc1ccc(NC2=CC(=O)c3ccccc3C2=O)cc1` [Compound 3a, 2-(1,4-Phenylenediamine)-1,4-naphthoquinone], the Ipa/Ipc amounted to 0.9.

Take `O=C1C=C(Nc2ccc(O)cc2)C(=O)c2ccccc21` [Compound 3b, 2-(4-aminophenol)-1,4-naphthoquinone]: the Ipa/Ipc is listed as 1.0.

In turn, `COc1ccc(NC2=CC(=O)c3ccccc3C2=O)cc1` [Compound 3c, 2-(4-methoxyaniline)-1,4-naphthoquinone] displayed an Ipa/Ipc of 1.0.

`N#Cc1ccc(NC2=CC(=O)c3ccccc3C2=O)cc1` [Compound 3d, 2-(4-aminobenzonitrile)-1,4-naphthoquinone]: the Ipa/Ipc worked out at 1.0.

The data set is the same for the next values; noted with them: Tables S1/S2, every redox process listed, acetonitrile, vs SCE, 100 mV.s-1.
Consider `O=C1C=CC(=O)c2ccccc21` [Compound 1, 1,4-naphthoquinone, reference compound], for which the E1/2 is listed as -0.66 V.

For the compound `Nc1ccc(NC2=CC(=O)c3ccccc3C2=O)cc1` [Compound 3a, 2-(1,4-Phenylenediamine)-1,4-naphthoquinone], the E1/2 was -0.82 V.

`O=C1C=C(Nc2ccc(O)cc2)C(=O)c2ccccc21` [Compound 3b, 2-(4-aminophenol)-1,4-naphthoquinone] yielded an E1/2 of -0.81 V and an Epc of -0.84 V.

In turn, `N#Cc1ccc(NC2=CC(=O)c3ccccc3C2=O)cc1` [Compound 3d, 2-(4-aminobenzonitrile)-1,4-naphthoquinone] registered an E1/2 of -0.70 V and an Epa of -0.66 V.

`O=C1C=C(Nc2ccc(O)cc2)c2ccccc2C1=O` [Compound 4b] showed an Epc of -0.61 V.

The data set is the same for the next values; noted with them: Tables S1/S2, peak separation, acetonitrile, 100 mV.s-1.
Consider `O=C1C=CC(=O)c2ccccc21` [Compound 1, 1,4-naphthoquinone, reference compound], for which the “Epa. Epc” value is 80 mV.

For the compound `Nc1ccc(NC2=CC(=O)c3ccccc3C2=O)cc1` [Compound 3a, 2-(1,4-Phenylenediamine)-1,4-naphthoquinone], the “Epa. Epc” value came to 80 mV.

On to `COc1ccc(NC2=CC(=O)c3ccccc3C2=O)cc1` [Compound 3c, 2-(4-methoxyaniline)-1,4-naphthoquinone], for which the “Epa. Epc” value came out at 120 mV.

On to `N#Cc1ccc(NC2=CC(=O)c3ccccc3C2=O)cc1` [Compound 3d, 2-(4-aminobenzonitrile)-1,4-naphthoquinone], for which the “Epa. Epc” value was 80 mV.

Still in this data set, the particulars now being: first reduction wave, acetonitrile, scan rate 0.100 V·s−1.
As to `O=C1C=CC(=O)c2ccccc21` [Compound 1, 1,4-naphthoquinone, reference compound], the “∆E (I)” value came out at 80 mV.

As for `Nc1ccc(NC2=CC(=O)c3ccccc3C2=O)cc1` [Compound 3a, 2-(1,4-Phenylenediamine)-1,4-naphthoquinone], the “∆E (I)” value is listed as 80 mV.

Consider `O=C1C=C(Nc2ccc(O)cc2)C(=O)c2ccccc21` [Compound 3b, 2-(4-aminophenol)-1,4-naphthoquinone], for which the “∆E (I)” value was found to be 70 mV.

For the compound `COc1ccc(NC2=CC(=O)c3ccccc3C2=O)cc1` [Compound 3c, 2-(4-methoxyaniline)-1,4-naphthoquinone], the “∆E (I)” value came out at 70 mV.

For `N#Cc1ccc(NC2=CC(=O)c3ccccc3C2=O)cc1` [Compound 3d, 2-(4-aminobenzonitrile)-1,4-naphthoquinone], the “∆E (I)” value was found to be 80 mV.

Staying with this data set, now noted: first reduction wave, acetonitrile, vs SCE, scan rate 0.100 V·s−1.
In the case of `O=C1C=CC(=O)c2ccccc21` [Compound 1, 1,4-naphthoquinone, reference compound], the “E1/2 (I)” value is recorded as −0.66 V and the “Epc (I)” value is −0.70 V.

Consider `Nc1ccc(NC2=CC(=O)c3ccccc3C2=O)cc1` [Compound 3a, 2-(1,4-Phenylenediamine)-1,4-naphthoquinone], for which the “E1/2 (I)” value is recorded as −0.82 V and the “Epc (I)” value is given as −0.86 V.

Turning to `O=C1C=C(Nc2ccc(O)cc2)C(=O)c2ccccc21` [Compound 3b, 2-(4-aminophenol)-1,4-naphthoquinone], the “E1/2 (I)” value was −0.81 V and the “Epc (I)” value is recorded as −0.84 V.

With `COc1ccc(NC2=CC(=O)c3ccccc3C2=O)cc1` [Compound 3c, 2-(4-methoxyaniline)-1,4-naphthoquinone], the “E1/2 (I)” value is −0.82 V and the “Epc (I)” value is reported as −0.86 V.

As to `N#Cc1ccc(NC2=CC(=O)c3ccccc3C2=O)cc1` [Compound 3d, 2-(4-aminobenzonitrile)-1,4-naphthoquinone], the “E1/2 (I)” value was −0.70 V and the “Epc (I)” value is on record as −0.74 V.

With `O=C1C=C(Nc2ccc(O)cc2)c2ccccc2C1=O` [Compound 4b], the “Epc (I)” value is −0.61 V.

On to `O=C1C=C(Nc2ccccc2O)c2ccccc2C1=O` [Compound 4h], for which the “Epc (I)” value was −0.57 V.

The data set is the same for the next values; noted with them: second reduction wave, acetonitrile, vs SCE, scan rate 0.100 V·s−1.
For the compound `O=C1C=CC(=O)c2ccccc21` [Compound 1, 1,4-naphthoquinone, reference compound], the “Epc (II)” value is −1.36 V.

For the compound `Nc1ccc(NC2=CC(=O)c3ccccc3C2=O)cc1` [Compound 3a, 2-(1,4-Phenylenediamine)-1,4-naphthoquinone], the “Epc (II)” value is reported as −1.42 V.

Turning to `COc1ccc(NC2=CC(=O)c3ccccc3C2=O)cc1` [Compound 3c, 2-(4-methoxyaniline)-1,4-naphthoquinone], the “Epc (II)” value is listed as −1.34 V.

Turning to `O=C1C=C(Nc2ccccc2O)c2ccccc2C1=O` [Compound 4h], the “Epc (II)” value was −0.98 V.

The test system of another data set is HepG2 human hepatocyte carcinoma cell line. Kind of data set: MTT cytotoxicity assay against HepG2 cell line. Type of data set: cell-based. To be noted: HepG2, 24 h incubation, mean ± SD, listed as 1,4-NQ, read-out: EC50 (cytotoxicity, concentration leading to the death of 50% of the cells). On the procedure: (§1) A hepatocellular carcinoma cell line HepG2, recognized for studying the metabolism of anticancer drugs, was used. The viability of HepG2 cell line culture after 24 h incubation with the compounds using the MTT (3-[4,5-dimethylthiazol-2-yl]-2,5-diphenyl tetrazolium bromide) assay was evaluated, and doxorubicin (Doxo) was used as a positive control.
(§2) HepG2 human hepatocyte carcinoma cell line was purchased from European Collection of Authenticated Cell Cultures (ECACC). HepG2 cells (ECACCC# 85011430) were cultured in Dulbecco’s Modified Eagle´s Medium (DMEM) supplemented with 10% fetal bovine serum, antibiotic-antimycotic (100 U/mL penicillin-streptomycin and 0.25 μg amphotericin B) and 2 mM L-glutamine at 37 °C in an atmosphere containing 5% CO2. The 3-(4,5-dimethylthiazol-2-yl)-2,5-diphenyltetrazolium bromide (MTT) method, described in Gaspar et al., [50] was used for assaying cell viability. Briefly, the cells were grown in the supplemented medium in 96-well microplates in an incubator with 5% CO2 at 37 °C, until reaching 100% confluence. After growth, the medium was replaced by the compounds’ solutions at different concentrations. The compounds were solubilized in supplemented medium containing 0.5% DMSO final concentration. Cells treated only with medium containing 0.5% DMSO served as a negative control. After 24 h incubation, the compound’s solutions were replaced by 100 µL of 0.5 mg/mL MTT solution in DMEM culture medium and incubated at 37 °C, 5% CO2 for 2–4 h. The formed formazan crystals were dissolved in 200 µL of methanol and the absorbance at 595 nm was registered against 630 nm (reference wavelength). For each concentration of the compounds, the percentage of growth inhibition/cytotoxicity was evaluated considering 100% of viability for the absorbance of the negative control. Dose-response curves for each compound were plotted using the Graph Pa Prim 4.0 software and the effective concentration leading to the death of 50% of the cells (EC50) was calculated. All experiments were replicated at least six times.
(Tetrazolium assays rely on reduction of a dye to a coloured formazan, in cell work by metabolically active cells.)
Regarding `O=C1C=CC(=O)c2ccccc21` [Compound 1, 1,4-naphthoquinone, reference compound], the EC50 was 32 µM.

System in another data set: not listed separately
Nature of the data set: MTT cytotoxicity assay against HepG2 cell line. To be noted: human, HepG2 cells, HepG2, 24 h incubation, mean ± SD, read-out: EC50 (cytotoxicity, concentration leading to the death of 50% of the cells). Type of data set: cell-based, human. On the procedure:
as §1, §2
Turning to `O=C1C=CC(=O)c2ccccc21` [Compound 1, 1,4-naphthoquinone, reference compound], the EC50 at 24 h is 32.2 ± 1.4 µM.

On to `Nc1ccc(NC2=CC(=O)c3ccccc3C2=O)cc1` [Compound 3a, 2-(1,4-Phenylenediamine)-1,4-naphthoquinone], for which the EC50 at 24 h came to 8.7 ± 1.3 µM.

Consider `O=C1C=C(Nc2ccc(O)cc2)C(=O)c2ccccc21` [Compound 3b, 2-(4-aminophenol)-1,4-naphthoquinone], for which the EC50 at 24 h is 21.4 ± 3.9 µM.

With `COc1ccc(NC2=CC(=O)c3ccccc3C2=O)cc1` [Compound 3c, 2-(4-methoxyaniline)-1,4-naphthoquinone], the EC50 at 24 h came to 13 ± 1.8 µM.

Consider `N#Cc1ccc(NC2=CC(=O)c3ccccc3C2=O)cc1` [Compound 3d, 2-(4-aminobenzonitrile)-1,4-naphthoquinone], for which the EC50 at 24 h is 79.4 ± 1.4 µM.

As for `O=C1C=C(Nc2ccc(O)cc2)c2ccccc2C1=O` [Compound 4b], the EC50 at 24 h is 7.1 ± 1.8 µM.

In the case of `O=C1C=C(Nc2ccccc2O)c2ccccc2C1=O` [Compound 4h], the EC50 at 24 h was 9.1 ± 3.3 µM.
